This is an account of results in article PMC4014703 (Pharmaceuticals, 2014).

Where a SMILES comes first, the peptide text is derived from it. Side-chain parts run from the residue outwards. [ ]: non-standard residue; d: D form. The star is where a group is joined. DOTA = O=C(O)CN1CCN(CC(=O)O)CCN(CC(=O)*)CCN(CC(=O)O)CC1; PEG6 = NCCOCCOCCOCCOCCOCCOCCC(=O)O; Tle = CC(C)(C)[C@H](N)C(=O)O; Nlys = NCCCCNCC(=O)O

A short description of data set [1]: in vivo. The conditions noted are these: nude, mouse, total radioactivity. More on the design: species or system nude mice. The protocol:
10–14 days after inoculation of the HT29 cells (tumor weight: 200–700 mg), the mice (about 10–12 weeks old with about 35–40 g body weight) were used for biodistribution studies. […] They were sacrificed by cervical dislocation 1 h, 4 h and 24 h after injection. Tumors and other tissues (blood, lung, liver, kidneys, heart, spleen, brain, muscle, femur and intestine) were rapidly removed and weighed. Radioactivity of the dissected tissues was measured using a gamma counter (Wallac Wizard, Perkin Elmer). Results were expressed as percentage of injected dose per gram of tissue (% ID/g), and tumor-to-organ ratios were calculated. Two randomly chosen mice were used for the determination of nonspecific tracer uptake in vivo. […] These mice were sacrificed by cervical dislocation at 4 h post injection (p.i.) and organs and tissue were removed, weighed and counted as described above.

The test system of data set [2] is tumor. The conditions noted are these: ^188Re-labeled peptide, day 6 after begin of treatment; cited from earlier work.

For orientation: tissue uptake means the share of the injected amount in each gram of the tissue.

Turning to `CC(C)C[C@H](NC(=O)[C@@H](NC(=O)[C@H](Cc1ccc(O)cc1)NC(=O)[C@@H]1CCCN1C(=O)[C@H](CCCCN)NC(=O)CN(CCCCN)C(=O)[C@@H](N)CCCCNC(=O)CCOCCOCCOCCOCCOCCOCCNC(=O)CN1CCN(CC(=O)O)CCN(CC(=O)O)CCN(CC(=O)O)CC1)C(C)(C)C)C(=O)O` [[^177Lu]NT127, metal not drawn] (H-K([PEG6-DOTA])[Nlys]KPY[Tle]L-OH), in data set [1] (iv), the tissue to tissue ratio at 1 h was determined as 30, the tissue to tissue ratio at 24 h stood at 60, the tissue uptake at 1 h came to 0.05 %ID/g and the tissue uptake at 24 h was determined as 0.01 %ID/g. For the same compound, the tissue uptake at 24 h in data set [1] (iv, Accumulation in HT29 tumor) was determined as 0.6 %ID/g. In addition, the tissue uptake at 1 h in data set [1] (iv, Accumulation in kidney) is 38 ± 1 %ID/g. Besides, in data set [1] (iv, Radioactivity concentration in liver), the tissue uptake at 24 h was found to be 0.4 %ID/g. Further, in data set [1] (Accumulation in HT29 tumor), the tissue uptake at 4 h stood at 1.1 %ID/g.

With “(N^αHis)Ac-Arg-(N-CH3)-Arg-Pro-Dmt-Tle-Leu [NT-XIX]”, the “Tumor growth in tumor-bearing nude mice” value in data set [2] is “decreased”.
